Key:
[1] = biological target: T1, human PRS protein (His-Avi-hEPRS (998-1512)) (Homo sapiens, UniProt P07814); experiment: PRS inhibitory activity ([32P]pyrophosphate exchange enzyme assay); type: biochemical; details: 300 nM test compound; read-out: inhibitory rate (%) of PRS
T1 construct: to construct His-Avi-hEPRS (998-1512) expression plasmid; His tag (N); Avi tag (N); TEV cleavage site (ENLYFQG, then S; inferred from the forward primer hEPRS-TEV-NheF) (N); made in house; host or cells: E. coli BL21(DE3)
T1 sequence (P07814 998-1512 limits assumed): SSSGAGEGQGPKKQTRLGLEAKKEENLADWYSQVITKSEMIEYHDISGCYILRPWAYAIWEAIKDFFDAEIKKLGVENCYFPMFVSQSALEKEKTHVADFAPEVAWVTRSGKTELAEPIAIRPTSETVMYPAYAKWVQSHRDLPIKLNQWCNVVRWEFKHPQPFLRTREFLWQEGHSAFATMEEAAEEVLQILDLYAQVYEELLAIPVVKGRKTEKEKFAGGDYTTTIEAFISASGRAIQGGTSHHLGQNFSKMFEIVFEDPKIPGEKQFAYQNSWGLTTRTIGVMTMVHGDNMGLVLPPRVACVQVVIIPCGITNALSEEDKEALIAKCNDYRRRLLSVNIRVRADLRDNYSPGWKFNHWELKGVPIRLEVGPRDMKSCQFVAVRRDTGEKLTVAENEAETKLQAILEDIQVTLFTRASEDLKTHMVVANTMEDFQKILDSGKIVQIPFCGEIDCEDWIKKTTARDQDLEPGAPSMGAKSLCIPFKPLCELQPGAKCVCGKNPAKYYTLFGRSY
In short: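 Compound was pre-incubated 60 min with 40 nM His-Avi-hEPRS (998-1512) (stock, E. coli-expressed) in Tris pH 7.5/KCl/DTT/Tween/MgCl2. Reaction began with substrate mix containing 300 μM ATP, 160 μM L-proline, 400 μM [32P]pyrophosphate (stock levels) and ran 30 min at room temperature. Charcoal-bound radioactivity was counted; inhibition was relative to no-reaction control.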

[2] = system: human ovarian cancer cells A2780; experiment: proliferation inhibitory activity against human ovarian cancer cell A2780 (CellTiter-Glo); type: cell-based; details: A2780, 72 h, 1 μM test compound, 3 days of culture, read-out: proliferation inhibitory rate (%) of A2780 cells
Protocol: The proliferation inhibitory activity of the compound of the present invention against human ovarian cancer cell A2780 was evaluated by the following method.
Human ovarian cancer cells A2780 were seeded in a 384 well culture plate at 1000 cells in 30 μL of medium per well by using RPMI-1640 medium (Wako Pure Chemical Industries, Ltd.) containing 10% fetal bovine serum and penicillin/streptomycin. The next day, 10 μL of RPMI-1640 medium containing the test compound was added to the cells. After 3 days of culture, 20 μL of CellTiter-Glo Luminescent Cell Viability Assay solution (Promega) was added. The luminescence signal was measured using EnVision (PerkinElmer) and the inhibitory rate (%) of the test compound was calculated with a well free of seeding of cell as 100% inhibition.

Row | Structure (SMILES) | inhibition at 0.3 µM [1] [%] | inhibition at 1 µM [2] [%]
1 | Cn1cc(-c2cc(F)cc(CNC(=O)c3nccc4nc(C5CCOC5)[nH]c34)c2)cn1 (stereo not drawn) [Example 103, N-(3-fluoro-5-(1-methyl-1H-pyrazol-4-yl)benzyl)-2-(tetrahydrofuran-3-yl)-3H-imidazo[4,5-c]pyridine-4-carboxamide] | 99 | 73
2 | Cc1cc(N2CCC3(CCC3)C2=O)cc(C(=O)NCc2cc(F)cc(-c3cnn(C)c3)c2)n1 [Example 232, N-(3-fluoro-5-(1-methyl-1H-pyrazol-4-yl)benzyl)-6-methyl-4-(5-oxo-6-azaspiro[3.4]oct-6-yl)pyridine-2-carboxamide] | 100 | 64
3 | O=C(NCc1ccccc1Cl)c1nccc2nc(C3CCCC3)[nH]c12 [Example 81, N-(2-chlorobenzyl)-2-cyclopentyl-3H-imidazo[4,5-c]pyridine-4-carboxamide] | 97 | 56
4 | Cn1cc(-c2cc(F)cc(CNC(=O)c3nccc4nc(C5CCCC5)[nH]c34)c2)nn1 [Example 89, 2-cyclopentyl-N-(3-fluoro-5-(1-methyl-1H-1,2,3-triazol-4-yl)benzyl)-3H-imidazo[4,5-c]pyridine-4-carboxamide] | 101 | 98
5 | Cc1cc(N2CC[C@@](C#N)(C3CC3)C2=O)cc(C(=O)NCc2cc(F)cc(-c3ccc(=O)n(C)c3)c2)n1 [Example 169, 4-((3S)-3-cyano-3-cyclopropyl-2-oxopyrrolidin-1-yl)-N-(3-fluoro-5-(1-methyl-6-oxo-1,6-dihydropyridin-3-yl)benzyl)-6-methylpyridine-2-carboxamide] | 100 | 98
6 | Cn1cc(-c2cc(F)cc(CNC(=O)c3ncnc4nc(C5CCC(F)(F)C5)[nH]c34)c2)cn1 (stereo not drawn) [Example 40, 8-(3,3-difluorocyclopentyl)-N-(3-fluoro-5-(1-methyl-1H-pyrazol-4-yl)benzyl)-7H-purine-6-carboxamide] | 102 | 98
7 | Cn1cc(-c2cc(F)cc(CNC(=O)c3ncc(F)c4nc(C5CCCC5)n(C)c34)c2)cn1 [Example 113, 2-cyclopentyl-7-fluoro-N-(3-fluoro-5-(1-methyl-1H-pyrazol-4-yl)benzyl)-3-methyl-3H-imidazo[4,5-c]pyridine-4-carboxamide] | 101 | 99
8 | Cn1c(C2CCCC2)nc2ncnc(C(=O)NCc3cc(F)cc(-c4cnn(C(C)(C)CO)c4)c3)c21 [Example 30, 8-cyclopentyl-N-(3-fluoro-5-(1-(1-hydroxy-2-methylpropan-2-yl)-1H-pyrazol-4-yl)benzyl)-7-methyl-7H-purine-6-carboxamide] | 102 | 99
9 | Cn1cc(-c2cc(F)cc(CNC(=O)c3nccc4nc(C5CCCC5)n(CCO)c34)c2)cn1 [Example 115, 2-cyclopentyl-N-(3-fluoro-5-(1-methyl-1H-pyrazol-4-yl)benzyl)-3-(2-hydroxyethyl)-3H-imidazo[4,5-c]pyridine-4-carboxamide] | 101 | 94
10 | Cc1cc(N2CC[C@@](C#N)(C3CC3)C2=O)cc(C(=O)NCc2cc(C#N)cc(-c3cnn(C)c3)c2)n1 [Example 167, 4-((3S)-3-cyano-3-cyclopropyl-2-oxopyrrolidin-1-yl)-N-(3-cyano-5-(1-methyl-1H-pyrazol-4-yl)benzyl)-6-methylpyridine-2-carboxamide] | 99 | 98
11 | Cc1cn(-c2cc(F)cc(CNC(=O)c3ncnc4nc(C5CCCC5)n(C)c34)c2)nc1C [Example 56, 8-cyclopentyl-N-(3-(3,4-dimethyl-1H-pyrazol-1-yl)-5-fluorobenzyl)-7-methyl-7H-purine-6-carboxamide] | 102 | 99

Further lines, with some results ahead:

Row | inhibition at 0.3 µM [1] [%] | Structure (SMILES) | inhibition at 1 µM [2] [%]
12 | 98 | Cn1cc(-c2cc(F)cc(CNC(=O)c3nc(N)nc4nc(C5CCCC5)[nH]c34)c2)cn1 [Example 42, 2-amino-8-cyclopentyl-N-(3-fluoro-5-(1-methyl-1H-pyrazol-4-yl)benzyl)-7H-purine-6-carboxamide] | 59
13 | 96 | Cc1cc(-c2cc(F)cc(CNC(=O)c3cc(N4CC[C@@](C#N)(C5CC5)C4=O)cc(C)n3)c2)cnn1 [Example 207, 4-((3S)-3-cyano-3-cyclopropyl-2-oxopyrrolidin-1-yl)-N-(3-fluoro-5-(6-methylpyridazin-4-yl)benzyl)-6-methylpyridine-2-carboxamide] | 59
14 | 99 | Cn1cc(-c2cc(F)cc(CNC(=O)c3cc(N4CC[C@@](C#N)(C5CC5)C4=O)cc(C(F)F)n3)c2)cn1 [Example 214, 4-((3S)-3-cyano-3-cyclopropyl-2-oxopyrrolidin-1-yl)-6-(difluoromethyl)-N-(3-fluoro-5-(1-methyl-1H-pyrazol-4-yl)benzyl)pyridine-2-carboxamide] | 72
15 | 101 | Cc1cc(N2CC[C@@](C#N)(C3CC3)C2=O)cc(C(=O)NCc2cc(Cl)cc(-c3cnn(C)c3)c2)n1 [Example 216, N-(3-chloro-5-(1-methyl-1H-pyrazol-4-yl)benzyl)-4-((3S)-3-cyano-3-cyclopropyl-2-oxopyrrolidin-1-yl)-6-methylpyridine-2-carboxamide] | 89
16 | 102 | CC(C)n1cc(-c2cc(F)cc(CNC(=O)c3ncnc4nc(C5CCCC5)[nH]c34)c2)cn1 [Example 11, 8-cyclopentyl-N-(3-fluoro-5-(1-isopropyl-1H-pyrazol-4-yl)benzyl)-7H-purine-6-carboxamide] | 95
17 | 102 | Cn1cc(-c2cc(F)cc(CNC(=O)c3ncnc4nc(C5CCCCO5)n(C)c34)c2)cn1 (stereo not drawn) [Example 63, N-(3-fluoro-5-(1-methyl-1H-pyrazol-4-yl)benzyl)-7-methyl-8-(tetrahydro-2H-pyran-2-yl)-7H-purine-6-carboxamide] | 98
18 | 101 | CC(c1nc2ncnc(C(=O)NCc3cc(F)cc(-c4cnn(C)c4)c3)c2[nH]1)C1CC1 (stereo not drawn) [Example 45, 8-(1-cyclopropylethyl)-N-(3-fluoro-5-(1-methyl-1H-pyrazol-4-yl)benzyl)-7H-purine-6-carboxamide] | 99
19 | 100 | Cc1cc(N2CCC(C#N)(C3CCC3)C2=O)cc(C(=O)NCc2cc(F)cc(-c3cnn(C)c3)c2)n1 (stereo not drawn) [Example 229, 4-(3-cyano-3-cyclobutyl-2-oxopyrrolidin-1-yl)-N-(3-fluoro-5-(1-methyl-1H-pyrazol-4-yl)benzyl)-6-methylpyridine-2-carboxamide] | 91
20 | 100 | Cc1cc(N2CC[C@@](C#N)(C3CC3)C2=O)cc(C(=O)NCc2cc(F)cc(-c3cnn(C4CC4)c3)c2)n1 [Example 168, 4-((3S)-3-cyano-3-cyclopropyl-2-oxopyrrolidin-1-yl)-N-(3-(1-cyclopropyl-1H-pyrazol-4-yl)-5-fluorobenzyl)-6-methylpyridine-2-carboxamide] | 98
21 | 101 | Cn1cc(-c2cc(F)cc(CNC(=O)c3nccc4nc(C5CCCC5)[nH]c34)c2)cn1 [Example 86, 2-cyclopentyl-N-(3-fluoro-5-(1-methyl-1H-pyrazol-4-yl)benzyl)-3H-imidazo[4,5-c]pyridine-4-carboxamide] | 97
22 | 101 | Cn1c(C2CCCC2)nc2ccnc(C(=O)NCc3cc(F)cc(-c4cc[nH]c(=O)c4)c3)c21 [Example 97, 2-cyclopentyl-N-(3-fluoro-5-(2-oxo-1,2-dihydropyridin-4-yl)benzyl)-3-methyl-3H-imidazo[4,5-c]pyridine-4-carboxamide] | 98
23 | 100 | Cn1cc(-c2cc(F)cc(CNC(=O)c3nccc4nc(Cc5ccccc5)[nH]c34)c2)cn1 [Example 109, 2-benzyl-N-(3-fluoro-5-(1-methyl-1H-pyrazol-4-yl)benzyl)-3H-imidazo[4,5-c]pyridine-4-carboxamide] | 84
24 | 102 | Cn1cc(-c2cc(F)cc(CNC(=O)c3ncnc4nc(C5CCCC5)n(C)c34)c2)nn1 [Example 7, 8-cyclopentyl-N-(3-fluoro-5-(1-methyl-1H-1,2,3-triazol-4-yl)benzyl)-7-methyl-7H-purine-6-carboxamide] | 95

Reference: patent US10774083B2, “Heterocyclic amide compound” (TAKEDA PHARMACEUTICAL COMPANY LIMITED, priority 2016, dated 2020)
